Reference: patent publication US20170001956A1, “HYDROCARBYL CARBOXYBETAINE AND METHOD FOR PREVENTING HOFMANN ELIMINATION IN ALKALINE ENVIRONMENT” (NATIONAL CHUNG CHENG UNIVERSITY, priority 2015, published 2017)

Tested on: Staphylococcus aureus
Conditions: treated with 1M NaOH; compared to CB treated with 1M NaOH (CB-NaOH); FIG. 7

`CC(C[N+](C)(C)CCSSCC[N+](C)(C)CC(C)C(=O)O)C(=O)O` (stereo not drawn) [α-mCB, carboxy-alpha-methyl-betaine disulfide] was tested, and the “adsorption resistance against the biofouling of S. aureus” value was “better adsorption resistance”.
